Measurements as given in ChEMBL document CHEMBL1201862, “PubChem BioAssay data set” (2004).
Activity calls are given as the source filed them.

Legend:
[1] = target: T1, Short transient receptor potential channel 4 (Mus musculus, UniProt Q9QUQ5); test: calcium entry via TRPC4 opening agents – cell-based, HEK293 TRPC4/mu-opioid, Fluo-4 calcium, dose response (AID 434937); assay type: functional
T1 sequence (Q9QUQ5 whole entry): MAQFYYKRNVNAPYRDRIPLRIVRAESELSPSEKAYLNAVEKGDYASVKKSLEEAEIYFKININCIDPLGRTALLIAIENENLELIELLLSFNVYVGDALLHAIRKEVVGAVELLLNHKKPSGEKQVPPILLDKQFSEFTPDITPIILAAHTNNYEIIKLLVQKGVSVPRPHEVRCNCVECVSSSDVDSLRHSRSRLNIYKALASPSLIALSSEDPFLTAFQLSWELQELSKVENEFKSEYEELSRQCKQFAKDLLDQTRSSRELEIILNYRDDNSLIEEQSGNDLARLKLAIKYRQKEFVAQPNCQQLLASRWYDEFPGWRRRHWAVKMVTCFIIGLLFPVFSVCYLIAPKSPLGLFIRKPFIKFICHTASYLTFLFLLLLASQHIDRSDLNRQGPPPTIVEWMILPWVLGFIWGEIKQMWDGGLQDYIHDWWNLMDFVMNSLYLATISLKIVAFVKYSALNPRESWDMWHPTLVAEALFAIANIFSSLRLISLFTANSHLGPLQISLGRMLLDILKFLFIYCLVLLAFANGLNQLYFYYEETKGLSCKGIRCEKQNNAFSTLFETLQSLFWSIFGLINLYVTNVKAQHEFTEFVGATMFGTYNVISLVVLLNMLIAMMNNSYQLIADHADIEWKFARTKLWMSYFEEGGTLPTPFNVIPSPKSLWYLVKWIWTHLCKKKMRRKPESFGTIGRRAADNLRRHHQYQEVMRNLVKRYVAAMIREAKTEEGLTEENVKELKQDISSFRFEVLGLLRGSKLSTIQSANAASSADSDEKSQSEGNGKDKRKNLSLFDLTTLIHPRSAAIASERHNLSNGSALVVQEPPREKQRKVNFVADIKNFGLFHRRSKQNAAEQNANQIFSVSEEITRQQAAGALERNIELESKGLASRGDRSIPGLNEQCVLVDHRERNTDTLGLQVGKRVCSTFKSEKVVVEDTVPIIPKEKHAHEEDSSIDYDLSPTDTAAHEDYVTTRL

[2] = THP-1 cell cytotoxicity, dose response, cytotoxicity control for non-replicating M. tuberculosis project (AID 489025); assay type: functional
[3] = HepG2 cell cytotoxicity, dose response, cytotoxicity control for non-replicating M. tuberculosis project (AID 489018); assay type: functional; settings: Mycobacterium tuberculosis
[4] = Vero E6 cell cytotoxicity, dose response, cytotoxicity control for non-replicating M. tuberculosis project, secondary assay (AID 492998); assay type: functional, VeroE6; settings: Vero C1008
cells = assay type: functional
[5] = target: Voltage-dependent T-type calcium channel subunit alpha-1H (Homo sapiens, UniProt O95180); assay type: functional;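 note: channel activity triggered by adding a high calcium stimulation buffer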
Voltage-dependent T-type calcium channel subunit alpha-1H, sequence (O95180 whole entry): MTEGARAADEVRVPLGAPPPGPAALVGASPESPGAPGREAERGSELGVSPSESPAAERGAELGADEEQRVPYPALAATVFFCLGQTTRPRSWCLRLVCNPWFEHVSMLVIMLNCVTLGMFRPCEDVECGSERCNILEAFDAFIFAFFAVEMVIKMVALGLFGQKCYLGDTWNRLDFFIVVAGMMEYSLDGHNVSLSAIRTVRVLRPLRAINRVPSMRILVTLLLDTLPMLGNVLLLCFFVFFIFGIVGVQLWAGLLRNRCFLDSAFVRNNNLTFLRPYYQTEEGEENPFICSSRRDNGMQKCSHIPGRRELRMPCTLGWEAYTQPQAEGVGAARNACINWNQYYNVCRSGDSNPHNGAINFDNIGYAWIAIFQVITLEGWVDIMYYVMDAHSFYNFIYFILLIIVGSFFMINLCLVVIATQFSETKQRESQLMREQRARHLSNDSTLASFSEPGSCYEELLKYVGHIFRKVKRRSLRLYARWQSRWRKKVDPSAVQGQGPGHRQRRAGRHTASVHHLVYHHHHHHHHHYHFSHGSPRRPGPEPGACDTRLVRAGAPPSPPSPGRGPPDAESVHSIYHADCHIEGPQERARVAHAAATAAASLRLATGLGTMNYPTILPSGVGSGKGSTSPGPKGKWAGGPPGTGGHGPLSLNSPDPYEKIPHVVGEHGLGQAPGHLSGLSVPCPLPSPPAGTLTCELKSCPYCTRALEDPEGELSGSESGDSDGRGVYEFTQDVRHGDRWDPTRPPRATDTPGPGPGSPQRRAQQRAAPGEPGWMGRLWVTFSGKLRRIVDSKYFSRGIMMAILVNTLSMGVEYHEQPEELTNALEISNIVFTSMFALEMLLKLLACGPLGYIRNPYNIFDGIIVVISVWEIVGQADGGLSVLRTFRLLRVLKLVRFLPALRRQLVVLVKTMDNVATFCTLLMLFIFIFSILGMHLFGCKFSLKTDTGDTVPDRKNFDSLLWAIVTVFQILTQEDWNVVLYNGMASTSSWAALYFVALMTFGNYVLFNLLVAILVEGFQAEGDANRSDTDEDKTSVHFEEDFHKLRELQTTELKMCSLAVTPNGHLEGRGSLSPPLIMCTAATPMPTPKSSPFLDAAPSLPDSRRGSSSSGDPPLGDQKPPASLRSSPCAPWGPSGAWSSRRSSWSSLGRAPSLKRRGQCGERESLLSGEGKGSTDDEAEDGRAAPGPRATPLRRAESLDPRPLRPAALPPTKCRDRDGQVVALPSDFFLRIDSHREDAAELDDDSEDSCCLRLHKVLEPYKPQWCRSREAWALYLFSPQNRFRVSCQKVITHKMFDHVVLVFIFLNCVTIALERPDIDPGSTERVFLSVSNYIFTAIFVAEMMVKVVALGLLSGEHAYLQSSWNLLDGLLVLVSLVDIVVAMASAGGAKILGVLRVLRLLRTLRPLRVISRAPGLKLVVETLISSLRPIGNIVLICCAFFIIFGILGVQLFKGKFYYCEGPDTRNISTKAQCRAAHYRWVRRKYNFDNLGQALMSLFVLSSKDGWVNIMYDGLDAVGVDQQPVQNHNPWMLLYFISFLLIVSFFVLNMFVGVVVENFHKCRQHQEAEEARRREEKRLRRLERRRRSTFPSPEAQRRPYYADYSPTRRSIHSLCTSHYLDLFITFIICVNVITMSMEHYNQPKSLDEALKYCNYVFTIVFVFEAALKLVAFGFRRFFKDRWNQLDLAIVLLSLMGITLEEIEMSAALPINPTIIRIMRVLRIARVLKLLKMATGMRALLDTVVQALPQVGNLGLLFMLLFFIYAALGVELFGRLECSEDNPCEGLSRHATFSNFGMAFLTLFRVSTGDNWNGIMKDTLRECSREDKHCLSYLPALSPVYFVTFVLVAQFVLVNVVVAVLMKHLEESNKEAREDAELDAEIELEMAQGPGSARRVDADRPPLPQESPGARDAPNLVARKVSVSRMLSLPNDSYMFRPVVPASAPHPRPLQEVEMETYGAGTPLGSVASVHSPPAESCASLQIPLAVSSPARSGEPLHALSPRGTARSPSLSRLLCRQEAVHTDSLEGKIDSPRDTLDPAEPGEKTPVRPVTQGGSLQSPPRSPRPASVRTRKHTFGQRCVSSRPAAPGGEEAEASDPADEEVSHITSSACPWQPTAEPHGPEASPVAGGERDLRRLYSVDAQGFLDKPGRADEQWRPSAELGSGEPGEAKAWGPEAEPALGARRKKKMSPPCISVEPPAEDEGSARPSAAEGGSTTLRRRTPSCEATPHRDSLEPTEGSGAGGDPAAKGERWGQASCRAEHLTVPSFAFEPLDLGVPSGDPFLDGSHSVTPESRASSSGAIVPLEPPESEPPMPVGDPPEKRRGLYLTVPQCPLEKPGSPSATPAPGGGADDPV

[6] = target: Eukaryotic translation initiation factor 4H (Homo sapiens, UniProt Q15056); test: eIF4H binding inhibition – biochemical, uHTS, fluorescence polarization, translation initiation inhibitor project, primary screen (AID 2012)
[7] = target: Polyadenylate-binding protein 1 (Homo sapiens, UniProt P11940); test: blockers of PABP interaction with poly(A) – biochemical, fluorescence polarization, […] (AID 2014)
Polyadenylate-binding protein 1, sequence (P11940 whole entry): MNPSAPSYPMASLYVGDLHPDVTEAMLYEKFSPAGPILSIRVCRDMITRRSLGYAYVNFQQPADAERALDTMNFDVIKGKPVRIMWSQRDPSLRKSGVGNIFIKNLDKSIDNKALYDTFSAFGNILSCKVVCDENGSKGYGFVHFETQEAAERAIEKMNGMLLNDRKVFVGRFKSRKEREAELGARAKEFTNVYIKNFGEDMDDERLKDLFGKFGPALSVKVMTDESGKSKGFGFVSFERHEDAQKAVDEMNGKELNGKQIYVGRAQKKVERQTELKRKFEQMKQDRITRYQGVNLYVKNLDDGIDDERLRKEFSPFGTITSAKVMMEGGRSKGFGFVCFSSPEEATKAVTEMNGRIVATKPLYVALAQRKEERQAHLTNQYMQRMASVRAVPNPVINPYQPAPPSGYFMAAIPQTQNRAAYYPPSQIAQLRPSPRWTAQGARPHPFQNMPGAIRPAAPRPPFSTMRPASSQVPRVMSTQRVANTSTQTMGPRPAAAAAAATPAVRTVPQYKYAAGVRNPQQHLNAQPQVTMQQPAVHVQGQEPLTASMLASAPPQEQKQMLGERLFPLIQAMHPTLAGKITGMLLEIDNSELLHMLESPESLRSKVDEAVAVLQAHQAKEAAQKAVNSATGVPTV

[8] = target: DNA dC->dU-editing enzyme APOBEC-3A (Homo sapiens, UniProt P31941); test: Dose Response confirmation of small molecule APOBEC3A DNA Deaminase Inhibitors via a fluorescence-based single-stranded DNA deaminase assay. [Related pubchem assays (depositor defined):AID493011, AID493024]; assay type: functional
DNA dC->dU-editing enzyme APOBEC-3A, sequence (P31941 whole entry): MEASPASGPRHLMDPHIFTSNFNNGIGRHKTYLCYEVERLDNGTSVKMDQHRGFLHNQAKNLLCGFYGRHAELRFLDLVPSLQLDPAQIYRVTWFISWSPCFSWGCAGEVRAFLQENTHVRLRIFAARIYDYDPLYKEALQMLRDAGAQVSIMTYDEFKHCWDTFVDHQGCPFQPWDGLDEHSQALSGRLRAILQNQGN

[9] = target: DNA dC->dU-editing enzyme APOBEC-3G (Homo sapiens, UniProt Q9HC16); assay type: functional;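 note: Dose-response counterscreen measuring inhibition of APOBEC3G DNA deaminase activity, run while confirming APOBEC3A inhibitors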
DNA dC->dU-editing enzyme APOBEC-3G, sequence (Q9HC16 whole entry): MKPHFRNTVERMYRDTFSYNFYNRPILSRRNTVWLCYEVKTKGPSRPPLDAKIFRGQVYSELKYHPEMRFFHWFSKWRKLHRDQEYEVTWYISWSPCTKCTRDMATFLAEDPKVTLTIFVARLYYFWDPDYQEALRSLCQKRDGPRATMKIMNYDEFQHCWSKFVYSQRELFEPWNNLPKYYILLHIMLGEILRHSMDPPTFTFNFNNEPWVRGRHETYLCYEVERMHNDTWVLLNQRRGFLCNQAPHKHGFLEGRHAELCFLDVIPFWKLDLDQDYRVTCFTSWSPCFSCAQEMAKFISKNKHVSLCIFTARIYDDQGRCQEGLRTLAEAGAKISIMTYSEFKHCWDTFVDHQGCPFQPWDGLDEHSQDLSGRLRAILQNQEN

HeLa = test: ATP-based viability loss in HeLa cells – cell-based, CellTiter-Glo luminescence, cherry-pick samples, cytotoxicity control for MITF activator project, dose response (AID 540259); assay type: functional; settings: Homo sapiens
[10] = target: Beta-2 adrenergic receptor (Homo sapiens, UniProt P07550); test: ADRB2 activation measured by internalization – cell-based, FAP fluorogen, flow cytometry, cherry pick 1, dose response (AID 588763); assay type: functional
Beta-2 adrenergic receptor, sequence (P07550 whole entry): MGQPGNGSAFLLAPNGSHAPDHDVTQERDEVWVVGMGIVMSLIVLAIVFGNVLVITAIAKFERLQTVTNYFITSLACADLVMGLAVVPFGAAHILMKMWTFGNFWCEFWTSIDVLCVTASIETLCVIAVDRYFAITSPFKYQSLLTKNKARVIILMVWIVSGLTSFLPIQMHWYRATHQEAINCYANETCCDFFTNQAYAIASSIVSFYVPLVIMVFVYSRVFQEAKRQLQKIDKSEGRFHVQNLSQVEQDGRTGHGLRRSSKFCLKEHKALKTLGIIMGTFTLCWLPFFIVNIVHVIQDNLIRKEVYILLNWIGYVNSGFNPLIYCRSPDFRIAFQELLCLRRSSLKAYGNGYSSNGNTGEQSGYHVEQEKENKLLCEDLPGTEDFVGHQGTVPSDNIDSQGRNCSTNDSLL

Hexokinase = target: T2, Hexokinase (Trypanosoma brucei, UniProt Q38C41); test: Confirmation assay for inhibitors of Trypanosoma brucei hexokinase 1-Analogue-first series. [Related pubchem assays (depositor defined):AID1430, AID1632, AID2516, AID2560, AID2579, AID2600, AID449725, AID492951]; assay type: functional
T2 sequence (Q38C41 whole entry): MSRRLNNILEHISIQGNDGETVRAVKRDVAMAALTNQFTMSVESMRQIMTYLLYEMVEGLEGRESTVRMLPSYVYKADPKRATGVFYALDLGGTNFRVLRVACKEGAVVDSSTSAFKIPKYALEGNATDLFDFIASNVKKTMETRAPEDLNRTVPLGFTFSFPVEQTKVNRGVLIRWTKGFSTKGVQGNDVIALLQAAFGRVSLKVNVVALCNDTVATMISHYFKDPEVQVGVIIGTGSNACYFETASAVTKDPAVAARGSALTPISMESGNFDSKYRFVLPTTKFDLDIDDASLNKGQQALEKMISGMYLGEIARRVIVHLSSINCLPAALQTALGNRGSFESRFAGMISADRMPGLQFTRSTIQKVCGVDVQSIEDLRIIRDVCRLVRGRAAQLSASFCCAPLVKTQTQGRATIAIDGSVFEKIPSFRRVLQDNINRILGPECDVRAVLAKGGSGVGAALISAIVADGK

[11] = Luminescence Cell-Based Dose Retest to Confirm Inhibitors of Cancer Stem Cells. [Related pubchem assays (depositor defined):AID2717, AID2721]; assay type: functional; settings: Homo sapiens

In the case of CCn1c(=O)cc(OCC(=O)NCCCN2CC(C)CC(C)C2)c2ccccc21 (configuration not stated), the EC50 [1] is reported as 0.473 µM (active).

In the case of CN(C)c1c2ccccc2nc2c(F)c(F)c(F)c(F)c12, the CC50 [2] is reported as 22.9 µM (active), the CC50 [3] is reported as > 20 µM (active) and the CC50 [4] is reported as > 20 µM (active). The IC50 (cells) was 17.7 µM (active).

In the case of O=C(NCc1ccc2c(c1)OCO2)c1ccc(CN2CCc3ccccc3C2)cc1, the EC50 [5] is reported as 7.5 µM (active).

In the case of COc1cc(/C=C/c2cccc[n+]2C)ccc1OCC(=O)Nc1ccccc1C, the IC50 [6] is reported as > 100 µM (inactive), the IC50 [7] is reported as 3.83 µM (active) and the IC50 [8] is reported as 1.56 µM (active). The IC50 [9] was 1.29 µM (active).

For COc1ccccc1NC(=O)c1cc[n+](C)cc1, the IC50 [6] was 90.8 µM (active), the IC50 [7] was 5.63 µM (active) and the IC50 [8] was 2.48 µM (active). The IC50 [9] was 2.3 µM (active).

For COc1ccc(/C=C2\C(=O)NCC(=O)N2C)cc1, the IC50 [6] was > 100 µM (inactive), the IC50 [7] was 6.16 µM (active) and the IC50 [8] was 2.81 µM (active). For the same molecule, the IC50 [9] was 6.99 µM (active).

For O=C(Nc1ccc2c(c1)CCC2)C1CCCN(c2ncccn2)C1 (configuration not stated), the AC50 (HeLa) was 104 µM (active).

In the case of CCCNC(=O)Nc1nc2ccccc2s1, the AC50 (HeLa) is reported as 191 µM (active).

With Cc1ccc(CNC(=O)C[S+]([O-])Cc2nc(-c3ccccc3C)oc2C)cc1 (configuration not stated) the EC50 [5] was 6 µM (active).

In the case of CC1CC(C)CN(CCCNC(=O)c2csc3c2CCCCC3)C1 (configuration not stated), the EC50 [1] is reported as 4.73 µM (active).

In the case of Cc1ccc(NC(=O)C[S+]([O-])Cc2nc(-c3ccc(C)cc3)oc2C)cc1 (configuration not stated), the EC50 [5] is reported as 2.45 µM (active).

With Cc1ccc(Sc2cc(N3CCOCC3)nc(-c3ccccc3)n2)cc1 the EC50 [10] was 4.82 µM (active).

For CC(CCc1ccccc1)NC(=O)CN1CCN(Cc2ccc(Cl)cc2)C1=O (configuration not stated), the EC50 [5] was 4.5 µM (active).

For COc1ccc(C(C)=O)cc1COc1ccc(Cl)cc1Cl, the EC50 [10] was 2.67 µM (active).

For Cc1ccc(C(=O)Nc2cc(Cl)ccc2C(=O)O)c(C)c1, the IC50 (Hexokinase) was > 25 µM (inactive).

In the case of N#Cc1ccccc1NC(=O)Cn1sc2ccccc2c1=O, the IC50 (Hexokinase) is reported as 7.21 µM (active).

In the case of COc1cc(OC)cc(-c2cc3cc(F)ccc3cn2)c1, the AC50 (HeLa) is reported as 50.6 µM (active).

With O=C(Cn1sc2ccccc2c1=O)N1CCOCC1 the IC50 (Hexokinase) was > 25 µM (inactive).

For Brc1ccc(/C=N/Nc2ccccc2)cc1, the AC50 [11] was 3.98 µM (active) and the AC50 (HeLa) was 65.5 µM (active).
